Literature values, collected in patent US11655474B2, “Suppression of pathological angiogenesis by inhibition of NR2F6” (Regen Biopharma, Inc., priority 2019, dated 2023).

Assays:
human microvascular ECs = human microvascular ECs cultured in tumor-conditioned medium
[1] = subset that received paclitaxel with the antibody

Row | Molecule | tumor CM-induced MDR1 up-regulation (human microvascular ECs) | HR, overall survival (ovarian cancer patients; bevacizumab plus chemotherapy compared with chemotherapy alone, 95 percent CI: 0.69, 1.14) | median progression free survival (PFS) (ovarian cancer patients; bevacizumab plus chemotherapy, ovarian cancer patients, chemotherapy alone 3.4 months) [months] | median overall survival (OS) (ovarian cancer patients; bevacizumab plus chemotherapy, chemotherapy alone 13.3 months) [months] | improvement in median OS (ovarian cancer patients; [1]) [month] | improvement in median PFS (ovarian cancer patients; [1]) [month] | HR, PFS (ovarian cancer patients; subset that received paclitaxel with the antibody, 95 percent CI: 0.31, 0.72) | HR, OS (ovarian cancer patients; subset that received paclitaxel with the antibody, 95 percent CI: 0.41, 1.01) | median PFS (ovarian cancer patients; subset that received paclitaxel with the antibody, versus 3.9 months) [months] | median OS (ovarian cancer patients; subset that received paclitaxel with the antibody, versus 13.2 months) [months] | objective response rate (ovarian cancer patients; subset that received paclitaxel with the antibody, versus 30 percent) [%]
1 | COc1cc2nccc(Oc3ccc(NC(=O)Nc4ccc(F)cc4F)c(F)c3)c2cc1OC [Ki8751] | blocked | – | – | – | – | – | – | – | – | – | –
2 | bevacizumab: antibody which binds VEGF | – | 0.89 | 6.8 | 16.6 | 9.2 | 5.7 | 0.47 | 0.64 | 9.6 | 22.4 | 53
